In US11180504B2 (ORCHID PHARMA LTD., priority 2016, dated 2021):
In brackets after ≈: the same amount, converted by molar mass.

Legend:
[1] = tested on: methicillin-sensitive Staphylococcus aureus; experiment: MIC by broth micro-dilution (CLSI), methicillin-sensitive S. aureus; format: cell-based; conditions: Staphylococcus aureus, ATCC 29213 / MSSA, MSSA S. aureus ATCC29213; read-out: MIC
[2] = tested on: carbapenem sensitive Escherichia coli; experiment: MIC by broth micro-dilution (CLSI), carbapenem sensitive E. coli; format: cell-based; conditions: Escherichia coli, ATCC25922, ESBL −ve E. coli ATCC25922; read-out: MIC
[3] = tested on: extended spectrum β lactamase (ESBL) SHV18 producing Klebsiella pneumoniae; experiment: MIC by broth micro-dilution (CLSI), ESBL SHV18 producing K. pneumoniae; format: cell-based; conditions: Klebsiella pneumoniae, ATCC700603, 22 h, ESBL +ve (SHV-18) K. pneumoniae ATCC700603; read-out: MIC
[4] = tested on: carbapenemase producing K. pneumoniae; experiment: MIC by broth micro-dilution (CLSI), carbapenemase producing K. pneumoniae; format: cell-based, Klebsiella pneumoniae; conditions: Klebsiella pneumoniae, ATCCBAA1705, KPC-2 K. pneumoniae ATCC BAA-1705; read-out: MIC
[5] = tested on: carbapenem sensitive Pseudomonas aeruginosa; experiment: MIC by broth micro-dilution (CLSI), carbapenem sensitive P. aeruginosa; format: cell-based; conditions: Pseudomonas aeruginosa, ATCC27853, Meropenem susceptible P. aeruginosa ATCC27853; read-out: MIC

MIC [1] | MIC [2] | MIC [3] | MIC [4] | MIC [5] | SMILES
2 µg/mL (≈ 3.99 µM) | 1 µg/mL (≈ 1.99 µM) | 4 µg/mL (≈ 7.98 µM) | 4 µg/mL (≈ 7.98 µM) | 4 µg/mL (≈ 7.98 µM) | C[C@@H](NC(=O)C(F)F)[C@H]1C(=O)N2C(C(=O)O)=C(S[C@@H]3CN[C@H](C(=O)N4CC[C@@H](N)C4)C3)[C@H](C)[C@H]12 [Example 124]
8 µg/mL (≈ 14.6 µM) | 0.5 µg/mL (≈ 0.913 µM) | 2 µg/mL (≈ 3.65 µM) | 4 µg/mL (≈ 7.3 µM) | > 128 µg/mL | C[C@@H](NC(=O)C(F)F)[C@H]1C(=O)N2C(C(=O)O)=C(S[C@@H]3CN[C@H](C(=O)NCCC(=O)NCCO)C3)[C@H](C)[C@H]12 [Example 116]
32 µg/mL (≈ 62.9 µM) | 1 µg/mL (≈ 1.97 µM) | 2 µg/mL (≈ 3.93 µM) | 2 µg/mL (≈ 3.93 µM) | 2 µg/mL (≈ 3.93 µM) | CNCC(=O)N[C@H](C)[C@H]1C(=O)N2C(C(=O)O)=C(S[C@@H]3CN[C@H](C(=O)N4CC[C@@H](CN)C4)C3)[C@H](C)[C@H]12 [Example 220]
2 µg/mL (≈ 3.94 µM) | 2 µg/mL (≈ 3.94 µM) | 8 µg/mL (≈ 15.8 µM) | 8 µg/mL (≈ 15.8 µM) | > 128 µg/mL | C[C@H]([C@H]1C(=O)N2C(C(=O)O)=C(SC3CN[C@H](C(=O)N4CCNCC4)C3)[C@H](C)[C@H]12)n1cc(CF)nn1 (stereo partly drawn) [Example 207]
2 µg/mL (≈ 3.88 µM) | 1 µg/mL (≈ 1.94 µM) | 4 µg/mL (≈ 7.76 µM) | 8 µg/mL (≈ 15.5 µM) | 64 µg/mL (≈ 124 µM) | C[C@@H](NC(=O)C(F)F)[C@H]1C(=O)N2C(C(=O)O)=C(S[C@@H]3CN[C@H](C(=O)N4CCN(C)CC4)C3)[C@H](C)[C@H]12 [Example 43]
16 µg/mL (≈ 31.3 µM) | 1 µg/mL (≈ 1.96 µM) | 2 µg/mL (≈ 3.92 µM) | 2 µg/mL (≈ 3.92 µM) | 2 µg/mL (≈ 3.92 µM) | CNCC(=O)N[C@H](C)[C@H]1C(=O)N2C(C(=O)O)=C(S[C@@H]3CN[C@H](C(=O)N4C[C@@H](O)[C@@H](N)C4)C3)[C@H](C)[C@H]12 [Example 218]
8 µg/mL (≈ 15 µM) | 0.5 µg/mL (≈ 0.937 µM) | 2 µg/mL (≈ 3.75 µM) | 8 µg/mL (≈ 15 µM) | > 128 µg/mL | CONC(=O)CCNC(=O)[C@@H]1C[C@H](SC2=C(C(=O)O)N3C(=O)[C@H]([C@@H](C)NC(=O)C(F)F)[C@H]3[C@H]2C)CN1 [Example 115]
4 µg/mL (≈ 7.77 µM) | 1 µg/mL (≈ 1.94 µM) | 8 µg/mL (≈ 15.5 µM) | 4 µg/mL (≈ 7.77 µM) | 64 µg/mL (≈ 124 µM) | C[C@@H](NS(=O)(=O)C(F)(F)F)[C@H]1C(=O)N2C(C(=O)O)=C(S[C@@H]3CN[C@H](C(=O)N(C)C)C3)[C@H](C)[C@H]12 [Example 13]
64 µg/mL (≈ 141 µM) | 2 µg/mL (≈ 4.41 µM) | 4 µg/mL (≈ 8.82 µM) | 2 µg/mL (≈ 4.41 µM) | 32 µg/mL (≈ 70.6 µM) | C[C@@H](NC(=O)CCN)[C@H]1C(=O)N2C(C(=O)O)=C(S[C@@H]3CN[C@H](C(=O)N(C)C)C3)[C@H](C)[C@H]12 [Example 165]
4 µg/mL (≈ 7.52 µM) | 0.5 µg/mL (≈ 0.941 µM) | 4 µg/mL (≈ 7.52 µM) | 4 µg/mL (≈ 7.52 µM) | 8 µg/mL (≈ 15 µM) | C[C@@H](NC(=O)C(F)F)[C@H]1C(=O)N2C(C(=O)O)=C(S[C@@H]3CN[C@H](C(=O)N4C[C@@H](N)C[C@H]4CO)C3)[C@H](C)[C@H]12 [Example 186]
> 128 µg/mL | 4 µg/mL (≈ 8.17 µM) | 16 µg/mL (≈ 32.7 µM) | 16 µg/mL (≈ 32.7 µM) | 32 µg/mL (≈ 65.4 µM) | C[C@@H](NS(=O)(=O)CCN)[C@H]1C(=O)N2C(C(=O)O)=C(S[C@@H]3CN[C@H](C(=O)N(C)C)C3)[C@H](C)[C@H]12 [Example 136]
128 µg/mL (≈ 245 µM) | 16 µg/mL (≈ 30.7 µM) | 64 µg/mL (≈ 123 µM) | 64 µg/mL (≈ 123 µM) | 32 µg/mL (≈ 61.3 µM) | C[C@@H](NC(=O)CN(C)C=N)[C@H]1C(=O)N2C(C(=O)O)=C(S[C@@H]3CN[C@H](C(=O)N4CC[C@@H](N)C4)C3)[C@H](C)[C@H]12 [Example 229]
1 µg/mL (≈ 1.64 µM) | 0.5 µg/mL (≈ 0.82 µM) | 2 µg/mL (≈ 3.28 µM) | 4 µg/mL (≈ 6.56 µM) | 8 µg/mL (≈ 13.1 µM) | C[C@@H](NC(=O)C(F)F)[C@H]1C(=O)N2C(C(=O)O)=C(S[C@@H]3CN[C@H](C(=O)N4C[C@@H](N)C[C@H]4CNS(N)(=O)=O)C3)[C@H](C)[C@H]12 [Example 212]
32 µg/mL (≈ 64.6 µM) | 1 µg/mL (≈ 2.02 µM) | 4 µg/mL (≈ 8.07 µM) | 2 µg/mL (≈ 4.04 µM) | 16 µg/mL (≈ 32.3 µM) | C[C@@H](NC(=O)CN(C)C(=N)N)[C@H]1C(=O)N2C(C(=O)O)=C(S[C@@H]3CN[C@H](C(=O)N(C)C)C3)[C@H](C)[C@H]12 [Example 231]
4 µg/mL (≈ 7.57 µM) | 4 µg/mL (≈ 7.57 µM) | 32 µg/mL (≈ 60.5 µM) | 16 µg/mL (≈ 30.3 µM) | > 128 µg/mL | C[C@@H](NS(=O)(=O)c1cccs1)[C@H]1C(=O)N2C(C(=O)O)=C(S[C@@H]3CN[C@H](C(=O)N(C)C)C3)[C@H](C)[C@@H]12 [Example 33]
